Assay results reported in patent US20100210602A1, “PhoU (PerF), A P[…] INVOLVED IN [sequence] FORMATION AND TOLERANCE TO MULTIPLE ANTIBIOTICS AND [sequence] AS A DRUG TARGET FOR [sequence] BACTERIA” (priority 2006, published 2010).
In brackets after ≈: the same amount, converted by molar mass. Like-named read-outs stand apart in the source and are kept apart here.

How the values were obtained:
JHU-313 = assay: Kirby-Bauer paper disc assay, zone inhibition
JHU-313 containing pPhoU [1] = assay: Kirby-Bauer paper disc assay, zone inhibition
W3110 [2] = system: W3110
[3] = system: JHU-313 containing pVector; assay: Kirby-Bauer paper disc assay, zone inhibition
[4] = system: PhoU transposon mutant (JHU-313); format: cell-based
[5] = system: JHU-313 containing pVector; assay: MIC/MBC by serial two-fold dilutions in LB broth; format: cell-based, E. coli; conditions: Escherichia coli, 16 h at 37° C.
wild type strain W3110 [6] = format: cell-based, E. coli; conditions: 20 h after 1.5 h ampicillin pre-exposure; ampicillin 100, gentamicin 20, trimethoprim 16, norfloxacin 5 μg/ml
PhoU mutant (JHU-313) [7] = assay: Sequential antibiotic exposure of ampicillin persisters (CFU); format: cell-based, E. coli; conditions: 20 h after 1.5 h ampicillin pre-exposure; ampicillin 100, gentamicin 20, trimethoprim 16, norfloxacin 5 μg/ml
[8] = system: PhoU deletion mutant (ΔphoU); format: cell-based
wild type strain W3110 [9] = format: cell-based
W3110 [10] = assay: microbe, parasite or virus in culture; conditions: Escherichia coli, read-out: zone inhibition
PhoU mutant (JHU-313) [11] = assay: MIC/MBC by serial two-fold dilutions in LB broth; format: cell-based, E. coli; conditions: Escherichia coli, 16 h at 37° C.
JHU-313 containing pPhoU [12] = assay: MIC/MBC by serial two-fold dilutions in LB broth; format: cell-based, E. coli; conditions: Escherichia coli, 16 h at 37° C.
wild type strain W3110 [13] = assay: microbe, parasite or virus in culture; format: cell-based, E. coli; conditions: Escherichia coli, W3110, LB broth, 16 h at 37° C.
[14] = log phase, 1 week, Ap100, Norf3
[15] = log phase, 5 hr, ampicillin 100 μg/ml (Ap100), norfloxacin 3 μg/ml (Norf3)
[16] = log phase, 3 days, Ap100, Norf3
[17] = log phase, 5 days, Ap100, Norf3
[18] = log phase, 10 days, Ap100, Norf3
[19] = log phase, ampicillin 100 μg/ml, norfloxacin 3 μg/ml
[20] = stationary phase, 3 μg/ml, 120 hr exposure
[21] = stationary phase, 1 week, Ap100, Norf3
[22] = stationary phase, 5 hr, ampicillin 100 μg/ml (Ap100), norfloxacin 3 μg/ml (Norf3)
[23] = stationary phase, 1 day, Ap100, Norf3
[24] = stationary phase, 3 days, Ap100, Norf3
[25] = stationary phase, 5 days, Ap100, Norf3
[26] = stationary phase, 10 days, Ap100, Norf3
[27] = stationary phase, norfloxacin 3 μg/ml
[28] = Escherichia coli, read-out: zone inhibition

## OO [Hydrogen peroxide, hydrogen peroxide]
JHU-313; peroxide (30%)
  zone inhibition: 37 mm
JHU-313 containing pPhoU [1]; peroxide (30%)
  zone inhibition: 39 mm
W3110 [2]
  zone inhibition: 30 mm
[3]; peroxide (30%)
  zone inhibition: 46 mm

## CCn1cc(C(=O)O)c(=O)c2cc(F)c(N3CCNCC3)cc21 [Norfloxacin, norfloxacin]
[4]; [14]
  CFU: 0 CFU
[4]; [15]
  CFU: 2 × 10^7 CFU
[4]; log phase, 1 day, Ap100, Norf3
  CFU: 4 × 10^5 CFU
[4]; [16]
  CFU: 0 CFU
[4]; [17]
  CFU: 0 CFU
[4]; [18]
  CFU: 0 CFU
[4]; [19]
  time to killing of all cells: 1 days
[4]; [20]
  viable bacteria left: no viable bacteria were left
[4]; [21]
  CFU: 0 CFU
[4]; [22]
  CFU: 3 × 10^8 CFU
[4]; [23]
  CFU: 4.5 × 10^7 CFU
[4]; [24]
  CFU: 2 × 10^5 CFU
[4]; [25]
  CFU: 0 CFU
[4]; [26]
  CFU: 0 CFU
[4]; [27]
  time to complete killing: ≤ 5 days
[5]; read-out: MBC
  MBC: 0.5 µg/mL (≈ 1.57 µM)
[5]; read-out: MIC
  MIC: 0.125 µg/mL (≈ 0.391 µM)
Wild type strain W3110 [6]
  CFU after second antibiotic exposure: 7 × 10^5 CFU/ml
JHU-313; [28]
  zone of inhibition at 0.1 µg/mL: 28 mm
  zone of inhibition at 0.5 µg/mL: 30 mm
  zone of inhibition at 2 µg/mL: 34 mm
  zone of inhibition at 4 µg/mL: 37 mm
PhoU mutant (JHU-313) [7]
  CFU after second antibiotic exposure: 0 CFU/ml
[8]; [14]
  CFU: 0 CFU
[8]; [15]
  CFU: 5 × 10^7 CFU
[8]; log phase, 1 day, Ap100, Norf3
  CFU: 1 × 10^6 CFU
[8]; [16]
  CFU: 0 CFU
[8]; [17]
  CFU: 0 CFU
[8]; [18]
  CFU: 0 CFU
[8]; [19]
  time to killing of all cells: 1 days
[8]; [21]
  CFU: 0 CFU
[8]; [22]
  CFU: 6 × 10^8 CFU
[8]; [23]
  CFU: 2 × 10^8 CFU
[8]; [24]
  CFU: 3 × 10^5 CFU
[8]; [25]
  CFU: 0 CFU
[8]; [26]
  CFU: 0 CFU
[8]; [27]
  time to complete killing: ≤ 5 days
Wild type strain W3110 [9]; [14]
  CFU: 0 CFU
Wild type strain W3110 [9]; [15]
  CFU: 1 × 10^8 CFU
Wild type strain W3110 [9]; log phase, 1 day, Ap100, Norf3
  CFU: 4 × 10^6 CFU
Wild type strain W3110 [9]; [16]
  CFU: 5 × 10^4 CFU
Wild type strain W3110 [9]; [17]
  CFU: 7 × 10^2 CFU
Wild type strain W3110 [9]; [18]
  CFU: 0 CFU
Wild type strain W3110 [9]; [19]
  time to killing of all cells: 5 days
Wild type strain W3110 [9]; [20]
  viable bacteria left: about 10^7 CFU/ml
Wild type strain W3110 [9]; [21]
  CFU: 1.5 × 10^4 CFU
Wild type strain W3110 [9]; [22]
  CFU: 5 × 10^9 CFU
Wild type strain W3110 [9]; [23]
  CFU: 4 × 10^9 CFU
Wild type strain W3110 [9]; [24]
  CFU: 1 × 10^8 CFU
Wild type strain W3110 [9]; [25]
  CFU: 4 × 10^6 CFU
Wild type strain W3110 [9]; [26]
  CFU: 2 × 10^2 CFU
W3110 [10]
  zone of inhibition at 0.1 µg/mL: 24 mm
  zone of inhibition at 0.5 µg/mL: 27 mm
  zone of inhibition at 2 µg/mL: 30 mm
  zone of inhibition at 4 µg/mL: 32 mm
JHU-313 containing pPhoU [1]; [28]
  zone of inhibition at 0.1 µg/mL: 27 mm
  zone of inhibition at 0.5 µg/mL: 31 mm
  zone of inhibition at 2 µg/mL: 35 mm
  zone of inhibition at 4 µg/mL: 36 mm
PhoU mutant (JHU-313) [11]; read-out: MBC
  MBC: 0.5 µg/mL (≈ 1.57 µM)
PhoU mutant (JHU-313) [11]; read-out: MIC
  MIC: 0.125 µg/mL (≈ 0.391 µM)
JHU-313 containing pPhoU [12]; read-out: MBC
  MBC: 1 µg/mL (≈ 3.13 µM)
JHU-313 containing pPhoU [12]; read-out: MIC
  MIC: 0.5 µg/mL (≈ 1.57 µM)
[3]; [28]
  zone of inhibition at 0.1 µg/mL: 29 mm
  zone of inhibition at 0.5 µg/mL: 35 mm
  zone of inhibition at 2 µg/mL: 40 mm
  zone of inhibition at 4 µg/mL: 44 mm
Wild type strain W3110 [13]; read-out: MBC
  MBC: 1 µg/mL (≈ 3.13 µM)
Wild type strain W3110 [13]; read-out: MIC
  MIC: 0.5 µg/mL (≈ 1.57 µM)

## CN(C)[C@@H]1C(O)=C(C(N)=O)C(=O)[C@@]2(O)C(O)=C3C(=O)c4c(O)cccc4[C@@](C)(O)[C@H]3C[C@@H]12 [Tetracycline]
JHU-313; [28]
  zone of inhibition at 12.5 µg/mL: 26 mm
  zone of inhibition at 25 µg/mL: 32 mm
  zone of inhibition at 50 µg/mL: 32 mm
W3110 [10]
  zone of inhibition at 12.5 µg/mL: 22 mm
  zone of inhibition at 25 µg/mL: 23 mm
  zone of inhibition at 50 µg/mL: 23 mm
JHU-313 containing pPhoU [1]; [28]
  zone of inhibition at 12.5 µg/mL: 30 mm
  zone of inhibition at 25 µg/mL: 32 mm
  zone of inhibition at 50 µg/mL: 32 mm
[3]; [28]
  zone of inhibition at 12.5 µg/mL: 34 mm
  zone of inhibition at 25 µg/mL: 34 mm
  zone of inhibition at 50 µg/mL: 34 mm
